Test results as given in patent EP3262942A1, “SELENODIARYLS FOR USE AS MICROBICIDE OR AS MEDICINE” (Evonik Degussa GmbH, priority 2016, dated 2018).

Experiments:
Candida albicans = experiment: Growth test in microtiter plates, HA medium, 24 h, visual evaluation; type: cell-based; design: key: +: kein Wachstum im Vergleich zur Wachstumskontrolle; -: Wachstum wie Wachstumskontrolle
Mucor miehei = experiment: as above; type: cell-based; design: key to Aktivität gegenüber M. miehei: +: kein Wachstum im Vergleich zur Wachstumskontrolle; -: Wachstum wie Wachstumskontrolle
Penicillium notatum = experiment: as above; type: cell-based; design: key: +: kein Wachstum im Vergleich zur Wachstumskontrolle; -: Wachstum wie Wachstumskontrolle
Paecilomyces variotii = experiment: as above; type: cell-based; design: key: +: kein Wachstum im Vergleich zur Wachstumskontrolle; -: Wachstum wie Wachstumskontrolle
M. grisea H2O = experiment: microbe, parasite or virus in culture; type: cell-based, Magnaporthe grisea
Botrytis cinerea = experiment: microbe, parasite or virus in culture; type: cell-based
P. infestans = experiment: microbe, parasite or virus in culture; type: cell-based, Phytophthora infestans
M. grisea CM = experiment: microbe, parasite or virus in culture; type: cell-based, Magnaporthe grisea
Lepidium sativum = experiment: Crop plant growth test, seeds on filter discs, 4 days, visual evaluation; type: in vivo
Protocol: (§1) Testsubstanzen und Kontrollen werden auf Filterrondellen in Mikrotiterplatten (48 well) vorgelegt und das verwendete Lösungsmittel (DMSO) über Lyophilisation entfernt. Anschließend werden ca. 12 Samen pro Vertiefung (Setaria italical Lepidium sativum) zugeben, mit 200 µl sterilem Leitungswasser pro Vertiefung versetzt, mit einem Deckel versehen und in einer feuchten Kammer für 4 Tage im Pflanzenbrutschrank inkubiert (16h-Licht-8h-Dunkel-Rhythmus). Die Auswertung des Tests erfolgt optisch (+: mind. 75 % Wachstumshemmung im Vergleich zur Kontrolle, -: weniger als 75 % Wachstumshemmung im Vergleich zur Kontrolle.

Setaria italica = experiment: as above; type: in vivo
Protocol: as §1

[1] = test system: alle getesteten Pathogene; type: cell-based; conditions: 5-50 µg/mL
[2] = Pyricularia grisea, H2O, 24 h, read-out: Aktivität gegenüber M. grisea H2O
[3] = Phytophthora infestans, 24 h, read-out: Aktivität gegenüber P. infestans
[4] = Pyricularia grisea, 24 h, read-out: Aktivität gegenüber M. grisea CM

Compound	Aktivität gegenüber C. albicans (Candida albicans; 10µg/mL)	Aktivität gegenüber C. albicans (Candida albicans; 50µg/mL)	Aktivität gegenüber M. miehei (Mucor miehei; 10µg/mL)	Aktivität gegenüber M. miehei (Mucor miehei; 50µg/mL)	Aktivität gegenüber P. notatum (Penicillium notatum; 10µg/mL)	Aktivität gegenüber P. notatum (Penicillium notatum; 50µg/mL)	Aktivität gegenüber P. variotii (Paecilomyces variotii; 10µg/mL)	Aktivität gegenüber P. variotii (Paecilomyces variotii; 50µg/mL)	Aktivität gegenüber Nutzpflanzen: L. sativum (Lepidium sativum; 10µg/R)	Aktivität gegenüber Nutzpflanzen: L. sativum (Lepidium sativum; 20µg/R)	Aktivität gegenüber Nutzpflanzen: L. sativum (Lepidium sativum; 50µg/R)	Aktivität gegenüber Nutzpflanzen: S. italica (Setaria italica; 10µg/R)	Aktivität gegenüber Nutzpflanzen: S. italica (Setaria italica; 20µg/R)	Aktivität gegenüber Nutzpflanzen: S. italica (Setaria italica; 50µg/R)	Aktivität gegenüber M. grisea H2O (M. grisea H2O; 5µg/mL)	Aktivität gegenüber M. grisea H2O (M. grisea H2O; 10µg/mL)	Aktivität gegenüber M. grisea H2O (M. grisea H2O; 25µg/mL)	Aktivität gegenüber M. grisea H2O (M. grisea H2O; 50µg/mL)	Aktivität gegenüber B. cinerea (Botrytis cinerea; 5µg/mL)	Aktivität gegenüber B. cinerea (Botrytis cinerea; 10µg/mL)	further results
CC(C)(C)c1cc([Se]c2cc(C(C)(C)C)cc(C(C)(C)C)c2O)c(O)c(C(C)(C)C)c1 [Verbindung 14, Bis(3,5-di-tert-butyl-2-hydroxyphenyl)selen]	-	-	-	-	-	-	-	-	- (weniger als 75 % Wachstumshemmung im Vergleich zur Kontrolle)	- (weniger als 75 % Wachstumshemmung im Vergleich zur Kontrolle)	- (weniger als 75 % Wachstumshemmung im Vergleich zur Kontrolle)	- (weniger als 75 % Wachstumshemmung im Vergleich zur Kontrolle)	- (weniger als 75 % Wachstumshemmung im Vergleich zur Kontrolle)	- (weniger als 75 % Wachstumshemmung im Vergleich zur Kontrolle)							inhibition of growth at 5 µg/mL (M. grisea H2O; [2]): 0 to 25%; inhibition of growth at 10 µg/mL (M. grisea H2O; [2]): 0 to 25%; inhibition of growth at 25 µg/mL (M. grisea H2O; [2]): 0 to 25%; inhibition of growth at 50 µg/mL (M. grisea H2O; [2]): 0 to 25%; inhibition of growth at 5 µg/mL (Botrytis cinerea; Botrytis cinerea, 24 h, 5µg/mL, read-out: Aktivität gegenüber B. cinerea): 0 to 25%; inhibition of growth at 10 µg/mL (Botrytis cinerea; Botrytis cinerea, 24 h, 10µg/mL, read-out: Aktivität gegenüber B. cinerea): 0 to 25%; inhibition of growth at 25 µg/mL (Botrytis cinerea; Botrytis cinerea, 24 h, 25µg/mL, read-out: Aktivität gegenüber B. cinerea): 0 to 25%; inhibition of growth at 50 µg/mL (Botrytis cinerea; Botrytis cinerea, 24 h, 50µg/mL, read-out: Aktivität gegenüber B. cinerea): 0 to 25%; inhibition of growth at 5 µg/mL (P. infestans; [3]): 0 to 25%; inhibition of growth at 10 µg/mL (P. infestans; [3]): 0 to 25%; inhibition of growth at 25 µg/mL (P. infestans; [3]): 0 to 25%; inhibition of growth at 50 µg/mL (P. infestans; [3]): 0 to 25%; inhibition of growth at 5 µg/mL (M. grisea CM; [4]): 0 to 25%; inhibition of growth at 10 µg/mL (M. grisea CM; [4]): 0 to 25%; inhibition of growth at 25 µg/mL (M. grisea CM; [4]): 0 to 25%; inhibition of growth at 50 µg/mL (M. grisea CM; [4]): 0 to 25%; Aktivität im Wachstums- und Keimungshemmungstest gegen die getesteten Pathogene [1]: weder im Wachstums- noch im Keimungshemmungstest im verwendeten Konzentrationsbereich eine entsprechende Aktivität
COc1cc(C)c([Se]c2cc(OC)c(OC)cc2C)cc1OC [Verbindung 27, Bis(3,4-dimethoxy-6-methylphenyl)selen]	-	-	-	-	-	-	-	-	- (weniger als 75 % Wachstumshemmung im Vergleich zur Kontrolle)	- (weniger als 75 % Wachstumshemmung im Vergleich zur Kontrolle)	- (weniger als 75 % Wachstumshemmung im Vergleich zur Kontrolle)	+ (mind. 75 % Wachstumshemmung im Vergleich zur Kontrolle)	- (weniger als 75 % Wachstumshemmung im Vergleich zur Kontrolle)	+ (mind. 75 % Wachstumshemmung im Vergleich zur Kontrolle)	- (zwischen 0 und 25 % der Sporen nicht gekeimt)	- (zwischen 0 und 25 % der Sporen nicht gekeimt)	- (zwischen 0 und 25 % der Sporen nicht gekeimt)	+ (zwischen 25 und 50 % der Sporen nicht gekeimt)	- (key: +++: mehr als 75 % der Sporen nicht gekeimt; ++: zwischen 50 und 75 % der Sporen nicht gekeimt; +: zwischen 25 und 50 % der Sporen nicht gekeimt; -: zwischen 0 und 25 % der Sporen nicht gekeimt)	- (key: +++: mehr als 75 % der Sporen nicht gekeimt; ++: zwischen 50 und 75 % der Sporen nicht gekeimt; +: zwischen 25 und 50 % der Sporen nicht gekeimt; -: zwischen 0 und 25 % der Sporen nicht gekeimt)	Aktivität gegenüber B. cinerea (Botrytis cinerea; 25µg/mL): - (key: +++: mehr als 75 % der Sporen nicht gekeimt; ++: zwischen 50 und 75 % der Sporen nicht gekeimt; +: zwischen 25 und 50 % der Sporen nicht gekeimt; -: zwischen 0 und 25 % der Sporen nicht gekeimt); Aktivität gegenüber B. cinerea (Botrytis cinerea; 50µg/mL): - (key: +++: mehr als 75 % der Sporen nicht gekeimt; ++: zwischen 50 und 75 % der Sporen nicht gekeimt; +: zwischen 25 und 50 % der Sporen nicht gekeimt; -: zwischen 0 und 25 % der Sporen nicht gekeimt); Aktivität gegenüber P. infestans (P. infestans; 5µg/mL): - (zwischen 0 und 25 % der Sporen nicht gekeimt); Aktivität gegenüber P. infestans (P. infestans; 10µg/mL): - (zwischen 0 und 25 % der Sporen nicht gekeimt); Aktivität gegenüber P. infestans (P. infestans; 25µg/mL): - (zwischen 0 und 25 % der Sporen nicht gekeimt); Aktivität gegenüber P. infestans (P. infestans; 50µg/mL): - (zwischen 0 und 25 % der Sporen nicht gekeimt); Wirksamkeit gegenüber P. infestans (P. infestans): keine Wirkung; Aktivität gegenüber M. grisea CM (M. grisea CM; 5µg/mL): - (zwischen 0 und 25 % der Sporen nicht gekeimt); Aktivität gegenüber M. grisea CM (M. grisea CM; 10µg/mL): - (zwischen 0 und 25 % der Sporen nicht gekeimt); Aktivität gegenüber M. grisea CM (M. grisea CM; 25µg/mL): + (zwischen 25 und 50 % der Sporen nicht gekeimt); Aktivität gegenüber M. grisea CM (M. grisea CM; 50µg/mL): + (zwischen 25 und 50 % der Sporen nicht gekeimt)
COc1cc(C)c([Se]c2c(C)cc(OC)c(OC)c2OC)c(OC)c1OC [Verbindung 28, Bis(6-methyl-2,3,4-trimethoxyphenyl)selen]	-	-	-	-	-	-	-	-	- (weniger als 75 % Wachstumshemmung im Vergleich zur Kontrolle)	- (weniger als 75 % Wachstumshemmung im Vergleich zur Kontrolle)	- (weniger als 75 % Wachstumshemmung im Vergleich zur Kontrolle)	- (weniger als 75 % Wachstumshemmung im Vergleich zur Kontrolle)	- (weniger als 75 % Wachstumshemmung im Vergleich zur Kontrolle)	+ (mind. 75 % Wachstumshemmung im Vergleich zur Kontrolle)	+++ (mehr als 75 % der Sporen nicht gekeimt)	+++ (mehr als 75 % der Sporen nicht gekeimt)	+++ (mehr als 75 % der Sporen nicht gekeimt)	+++ (mehr als 75 % der Sporen nicht gekeimt)	- (key: +++: mehr als 75 % der Sporen nicht gekeimt; ++: zwischen 50 und 75 % der Sporen nicht gekeimt; +: zwischen 25 und 50 % der Sporen nicht gekeimt; -: zwischen 0 und 25 % der Sporen nicht gekeimt)	- (key: +++: mehr als 75 % der Sporen nicht gekeimt; ++: zwischen 50 und 75 % der Sporen nicht gekeimt; +: zwischen 25 und 50 % der Sporen nicht gekeimt; -: zwischen 0 und 25 % der Sporen nicht gekeimt)	Aktivität gegenüber B. cinerea (Botrytis cinerea; 25µg/mL): - (key: +++: mehr als 75 % der Sporen nicht gekeimt; ++: zwischen 50 und 75 % der Sporen nicht gekeimt; +: zwischen 25 und 50 % der Sporen nicht gekeimt; -: zwischen 0 und 25 % der Sporen nicht gekeimt); Aktivität gegenüber B. cinerea (Botrytis cinerea; 50µg/mL): - (key: +++: mehr als 75 % der Sporen nicht gekeimt; ++: zwischen 50 und 75 % der Sporen nicht gekeimt; +: zwischen 25 und 50 % der Sporen nicht gekeimt; -: zwischen 0 und 25 % der Sporen nicht gekeimt); Aktivität gegenüber P. infestans (P. infestans; 5µg/mL): - (zwischen 0 und 25 % der Sporen nicht gekeimt); Aktivität gegenüber P. infestans (P. infestans; 10µg/mL): - (zwischen 0 und 25 % der Sporen nicht gekeimt); Aktivität gegenüber P. infestans (P. infestans; 25µg/mL): - (zwischen 0 und 25 % der Sporen nicht gekeimt); Aktivität gegenüber P. infestans (P. infestans; 50µg/mL): - (zwischen 0 und 25 % der Sporen nicht gekeimt); Wirksamkeit gegenüber P. infestans (P. infestans): keine Wirkung; Aktivität gegenüber M. grisea CM (M. grisea CM; 5µg/mL): +++ (mehr als 75 % der Sporen nicht gekeimt); Aktivität gegenüber M. grisea CM (M. grisea CM; 10µg/mL): +++ (mehr als 75 % der Sporen nicht gekeimt); Aktivität gegenüber M. grisea CM (M. grisea CM; 25µg/mL): +++ (mehr als 75 % der Sporen nicht gekeimt); Aktivität gegenüber M. grisea CM (M. grisea CM; 50µg/mL): +++ (mehr als 75 % der Sporen nicht gekeimt)
